From patent publication US20160303116A1, “TREATMENT OF MULTIPLE SCLEROSIS WITH A 1,2,4-TRIAZOLO [1,5A] PYRIDINE DERIVATIVE” (CEPHALON, INC., priority 2013, published 2016)

How the values were obtained:
PLP-induced EAE [1] = assay: PLP-induced EAE mouse model (relapsing-remitting), clinical signs; format: in vivo, SJL/J mice; conditions: for Mortality: dead/total, to day 60; for Incidence: sick/total
JAK2 = JAK2 (Homo sapiens, UniProt O60674); conditions: statement with reference to earlier filings; cited from earlier work
[2] = set-up: species or system mice; conditions: mouse, in vivo
Protocol: PTX was injected intraperitoneally on the day of induction and 48 hours later at 100 ng/0.2 ml/mouse. […] All animals were monitored daily for clinical signs from the tenth day post-EAE induction until day 30. Scoring of EAE clinical signs was recorded on observations cards according to the grading system described herein.

SCH-induced EAE = SCH-induced EAE mouse model (acute), clinical signs; format: in vivo, (Balb/c×SJL) F1 (CSFL) mice; conditions: for GMS reduction / MMS reduction: vs vehicle
PLP-induced EAE [3] = assay: Ex vivo blinded pathology scoring in PLP-induced EAE; set-up: species or system SJL/J mice; conditions: 100 mg/kg dose; p<0.05; data not shown
Protocol: Two transverse sections from each cervical and lumbar intumescence (cervico-thoracic and lumbo-sacral vertebral segments) were evaluated. Histological evaluation was performed on 4 μm thick sections stained with hematoxylin-eosin (H&E), Luxol fast blue periodic acid-Schiff (LFB/PAS) and Bielschowsky silver impregnation to assess inflammation, demyelination and axonal pathology. Histological sections were scored blind. Inflammation was evaluated for both gray and white matter, demyelination was evaluated within white matter only, and axonal injury was evaluated within the white matter. Scores from both cervico-thoracic, and lumbosacral sections, respectively, were averaged to obtain the average inflammation score and demyelination scores. The most severe area of demyelination for each section was used to evaluate axonal pathology. […] The percentage axonal loss was determined by subtracting the number of points crossing axons subtracted by the total number of points of the stereological grid, divided by the total number of points of the stereological grid.

MOG-induced EAE [4] = assay: Histological scoring of spinal cords from MOG-induced EAE mice (inflammation, demyelination); format: in vivo, C57Bl/6 mice; conditions: 30 and 55 mg/kg twice a day and 110 mg/kg once a day; range over groups
Description: At the end of the observation period (day 30) the mice of the treatment groups were necropsied. The mice were deeply anesthetized with isoflourane and air and transcardially perfused, initially with a flushing solution (saline with heparin) until the perfusate was bloodless and then flushed with 4% buffered formalin. The vertebral columns (from the cervical region to the lumbar region) of each of the mice were dissected. The vertebral column was isolated by cutting away as much muscle as possible and sectioned distally at the last rib. The brain and the vertebral column were preserved in 4% buffered formalin.
Two transverse sections from each cervical and lumbar intumescence (cervico-thoracic and lumbo-sacral vertebral segments) were evaluated. […] Histological sections were scored blind. Inflammation was evaluated for both gray and white matter, demyelination was evaluated within white matter only, and axonal injury was evaluated within the white matter. […] The percentage axonal loss was determined by subtracting the number of points crossing axons subtracted by the total number of points of the stereological grid, divided by the total number of points of the stereological grid.
Two transverse sections from each cervical and lumbar intumescence (cervico-thoracic and lumbo-sacral vertebral segments) were evaluated. […]

MOG-induced EAE [5] = assay: MOG-induced EAE mouse model of MS, clinical signs; format: in vivo, C57Bl/6 mice; conditions: for Percent Inhibition-1: inhibition according to incidence vs vehicle; for Onset (of disease): no EAE counted as 31 days; for Percent Inhibition-3: reduction of GMS vs vehicle; for Percent Inhibition-2: reduction of MMS vs vehicle; for Incidence: sick/total
in vivo = assay: in vivo; set-up: species or system male beagle dogs; conditions: dog, po
[6] = 110 mg/kg orally once a day, vs vehicle
[7] = 110 mg/kg orally twice a day (so in the source)

Chain of JAK2 (O60674 whole entry, species assumed): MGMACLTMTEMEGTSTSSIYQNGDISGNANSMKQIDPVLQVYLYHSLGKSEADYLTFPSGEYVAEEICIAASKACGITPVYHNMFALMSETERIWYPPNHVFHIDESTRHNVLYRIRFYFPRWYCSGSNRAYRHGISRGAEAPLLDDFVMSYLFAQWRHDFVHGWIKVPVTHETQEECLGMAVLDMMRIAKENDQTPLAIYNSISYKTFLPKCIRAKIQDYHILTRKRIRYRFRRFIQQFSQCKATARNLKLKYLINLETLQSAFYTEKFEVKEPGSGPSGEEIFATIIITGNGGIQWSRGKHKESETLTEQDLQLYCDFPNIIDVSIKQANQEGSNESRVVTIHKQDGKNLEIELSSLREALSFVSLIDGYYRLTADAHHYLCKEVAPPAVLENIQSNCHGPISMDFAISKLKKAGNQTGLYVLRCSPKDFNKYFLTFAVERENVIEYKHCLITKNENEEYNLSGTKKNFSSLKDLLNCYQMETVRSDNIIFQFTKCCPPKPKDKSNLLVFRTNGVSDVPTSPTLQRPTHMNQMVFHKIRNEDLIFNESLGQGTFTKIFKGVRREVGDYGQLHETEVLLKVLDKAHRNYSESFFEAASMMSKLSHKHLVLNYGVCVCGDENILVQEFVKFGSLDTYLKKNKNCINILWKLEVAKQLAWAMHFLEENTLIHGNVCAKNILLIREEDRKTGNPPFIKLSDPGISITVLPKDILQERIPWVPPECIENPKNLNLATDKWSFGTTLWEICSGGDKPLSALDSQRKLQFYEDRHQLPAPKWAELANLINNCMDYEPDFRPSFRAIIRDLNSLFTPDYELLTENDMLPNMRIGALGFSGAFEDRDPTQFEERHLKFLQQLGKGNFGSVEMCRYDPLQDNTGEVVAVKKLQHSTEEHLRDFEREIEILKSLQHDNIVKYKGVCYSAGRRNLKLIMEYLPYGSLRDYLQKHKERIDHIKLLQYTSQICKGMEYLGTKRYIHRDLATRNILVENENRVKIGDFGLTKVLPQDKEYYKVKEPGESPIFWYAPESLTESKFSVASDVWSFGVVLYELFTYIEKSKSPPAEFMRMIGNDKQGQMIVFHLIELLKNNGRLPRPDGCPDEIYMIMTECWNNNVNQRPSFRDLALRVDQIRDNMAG

CN1CCN(c2cccc(Nc3nc4c(-c5ccc(S(C)(=O)=O)cc5)cccn4n3)c2)CC1 [Compound A, [8-(4-methanesulfonyl-phenyl)-[1,2,4]triazolo[1,5-a]pyridin-2-yl]-[3-(4-methyl-piperazin-1-yl)-phenyl]-amine]
GMS (1st and 2nd relapse) (PLP-induced EAE [1]; 30 mg/kg orally twice a day): 1.3 ± 0.9
Mortality (PLP-induced EAE [1]; 30 mg/kg orally twice a day): 0/15
Incidence (PLP-induced EAE [1]; 30 mg/kg orally twice a day): 15/15
reduction in overall mean clinical scores compared to vehicle (FIG. 4) (PLP-induced EAE [1]; 30 mg/kg twice daily): 25.9%
reduction in clinical score over that of vehicle (PLP-induced EAE [1]; 60 mg/kg once daily (data not shown)): 20.1%
GMS (1st and 2nd relapse) (PLP-induced EAE [1]; 60 mg/kg orally once a day): 1.4 ± 0.8
Mortality (PLP-induced EAE [1]; 60 mg/kg orally once a day): 0/15
Incidence (PLP-induced EAE [1]; 60 mg/kg orally once a day): 15/15
GMS (1st and 2nd relapse) (PLP-induced EAE [1]; 60 mg/kg orally twice a day): 0.8 ± 0.4
Mortality (PLP-induced EAE [1]; 60 mg/kg orally twice a day): 0/15
Incidence (PLP-induced EAE [1]; 60 mg/kg orally twice a day): 15/15
reduction in overall mean clinical scores compared to vehicle (FIG. 4) (PLP-induced EAE [1]; 60 mg/kg twice daily): 49.9%
reduction in clinical score over that of vehicle (PLP-induced EAE [1]; 100 mg/kg once daily (data not shown)): 54.9%
GMS (1st and 2nd relapse) (PLP-induced EAE [1]; 100 mg/kg orally once a day): 0.9 ± 0.5
Mortality (PLP-induced EAE [1]; 100 mg/kg orally once a day): 0/15
Incidence (PLP-induced EAE [1]; 100 mg/kg orally once a day): 15/15
GMS (1st and 2nd relapse) (PLP-induced EAE [1]; 100 mg/kg orally twice a day): 0.3 ± 0.3
Mortality (PLP-induced EAE [1]; 100 mg/kg orally twice a day): 0/15
Incidence (PLP-induced EAE [1]; 100 mg/kg orally twice a day): 10/15
activity in the first relapse (PLP-induced EAE [1]; 100 mg/kg twice a day): 97.6%
activity in the second relapse (PLP-induced EAE [1]; 100 mg/kg twice a day): 85.9%
reduction in overall mean clinical scores compared to vehicle (FIG. 4) (PLP-induced EAE [1]; 100 mg/kg twice daily): 86.1%
inhibition of JAK2 (JAK2): potent
exposures associated with efficacy [2]: 2000 to 4000 ng/mL
Clinical score reduction compared to vehicle (FIG. 3) (SCH-induced EAE; 30 mg/kg orally twice a day): 37.3%
Duration (of disease) (SCH-induced EAE; 30 mg/kg orally twice a day): 8.2 ± 3.3 days
Onset (of disease) (SCH-induced EAE; 30 mg/kg orally twice a day): 16.2 ± 2.0 days
GMS reduction (SCH-induced EAE; 30 mg/kg orally twice a day): 37.3%
MMS reduction (SCH-induced EAE; 30 mg/kg orally twice a day): 17.5%
Clinical score reduction compared to vehicle (FIG. 3) (SCH-induced EAE; 60 mg/kg orally twice a day): 58.3%
Duration (of disease) (SCH-induced EAE; 60 mg/kg orally twice a day): 8.4 ± 4.2 days
Onset (of disease) (SCH-induced EAE; 60 mg/kg orally twice a day): 16.4 ± 3.0 days
GMS reduction (SCH-induced EAE; 60 mg/kg orally twice a day): 58.3%
MMS reduction (SCH-induced EAE; 60 mg/kg orally twice a day): 30%
Mortality (SCH-induced EAE; range over groups treated with Compound A, vehicle 40%): 20-80%
reduction of inflammation (H&E staining) (PLP-induced EAE [3]): significance in the reduction of inflammation
reduction of demyelination over vehicle (LFB/PAS) (MOG-induced EAE [4]): 17.3%-23.9%
reduction of spinal inflammation over vehicle (H&E) (MOG-induced EAE [4]): 41.6%-57.5%
Duration (of disease) (MOG-induced EAE [5]; 30 mg/kg orally twice a day): 3.7 ± 6.1 days
GMS (group mean score) (MOG-induced EAE [5]; 30 mg/kg orally twice a day): 0.2±0.4
MMS (mean maximal score) (MOG-induced EAE [5]; 30 mg/kg orally twice a day): 0.7±1.0
Mortality (MOG-induced EAE [5]; 30 mg/kg orally twice a day, dead/total, to day 30): 0/15
Percent Inhibition-1 (MOG-induced EAE [5]; 30 mg/kg orally twice a day): 53.3%
Onset (of disease) (MOG-induced EAE [5]; 30 mg/kg orally twice a day): 23.7 ± 8.2 days
Percent Inhibition-3 (MOG-induced EAE [5]; 30 mg/kg orally twice a day): 90.5%
Percent Inhibition-2 (MOG-induced EAE [5]; 30 mg/kg orally twice a day): 79.4%
Incidence (MOG-induced EAE [5]; 30 mg/kg orally twice a day, to day 30): 7/15
reduction in clinical scores compared to vehicle (FIG. 1) (MOG-induced EAE [5]; 30 mg/kg orally twice daily): 90.5%
Duration (of disease) (MOG-induced EAE [5]; 55 mg/kg orally twice a day): 0.2 ± 0.8 days
GMS (group mean score) (MOG-induced EAE [5]; 55 mg/kg orally twice a day): 0.01±0.04
MMS (mean maximal score) (MOG-induced EAE [5]; 55 mg/kg orally twice a day): 0.1±0.3
Mortality (MOG-induced EAE [5]; 55 mg/kg orally twice a day, dead/total, to day 30): 0/15
Percent Inhibition-1 (MOG-induced EAE [5]; 55 mg/kg orally twice a day): 93.3%
Onset (of disease) (MOG-induced EAE [5]; 55 mg/kg orally twice a day): 30.5 ± 2.1 days
Percent Inhibition-3 (MOG-induced EAE [5]; 55 mg/kg orally twice a day): 99.5%
Percent Inhibition-2 (MOG-induced EAE [5]; 55 mg/kg orally twice a day): 97.1%
Incidence (MOG-induced EAE [5]; 55 mg/kg orally twice a day, to day 30): 1/15
reduction in clinical scores compared to vehicle (FIG. 1) (MOG-induced EAE [5]; 55 mg/kg orally twice daily): 99.5%
GMS reduction (MOG-induced EAE [5]; [6]): 98.5%
MMS reduction (MOG-induced EAE [5]; [6]): 97.1%
reduction in clinical score over that of vehicle (FIG. 1) (MOG-induced EAE [5]; 110 mg/kg orally once daily): 98.5%
Duration (of disease) (MOG-induced EAE [5]; [7]): 0.5 ± 2.1 days
GMS (group mean score) (MOG-induced EAE [5]; [7]): 0.03 ± 0.1
MMS (mean maximal score) (MOG-induced EAE [5]; [7]): 0.1 ± 0.3
Mortality (MOG-induced EAE [5]; 110 mg/kg orally twice a day (so in the source), dead/total, to day 30): 0/15
Percent Inhibition-1 (MOG-induced EAE [5]; [7]): 93.3%
Onset (of disease) (MOG-induced EAE [5]; [7]): 30.5 ± 2.1 days
Percent Inhibition-3 (MOG-induced EAE [5]; [7]): 98.5%
Percent Inhibition-2 (MOG-induced EAE [5]; [7]): 97.1%
Incidence (MOG-induced EAE [5]; 110 mg/kg orally twice a day (so in the source), to day 30): 1/15
Mortality (MOG-induced EAE [5]; any of the MOG-induced EAE treatment groups): not observed
impact on clinical score over vehicle (MOG-induced EAE [5]; once daily dosing at 10 mg/kg, 30 mg/kg and 60 mg/kg (data not shown)): no significant impact over vehicle
dose relation of Cmax and AUC (in vivo; 30 mg/kg): linear, dose-related increases
Cmax (in vivo; male, beagle, 100 mg/kg): 1760 ng/mL
